Reference: publication PMC7497641, “Neurotropic activity and safety of methylene-cycloalkylacetate (MCA) derivative 3-(3-allyl-2-methylenecyclohexyl) propanoic acid” (ACS Chemical Neuroscience, 2020)

Columns and labels:
[1] = biological target: Arginine Vasopressin Receptor 1A (AVPR1A) (Homo sapiens, UniProt P37288); experiment: SAFETYscan GPCR Calcium Flux; type: cell-based; details: read-out: RC50 (the source's name)
[2] = biological target: T1, 5-Hydroxy tryptamine (Serotonin) Receptor 1B (HTR1B) (Homo sapiens, UniProt P28222); experiment: SAFETYscan GPCR cAMP; type: cell-based
T1 construct: host or cells: cAMP Hunter cell lines
T1 sequence (P28222 whole entry): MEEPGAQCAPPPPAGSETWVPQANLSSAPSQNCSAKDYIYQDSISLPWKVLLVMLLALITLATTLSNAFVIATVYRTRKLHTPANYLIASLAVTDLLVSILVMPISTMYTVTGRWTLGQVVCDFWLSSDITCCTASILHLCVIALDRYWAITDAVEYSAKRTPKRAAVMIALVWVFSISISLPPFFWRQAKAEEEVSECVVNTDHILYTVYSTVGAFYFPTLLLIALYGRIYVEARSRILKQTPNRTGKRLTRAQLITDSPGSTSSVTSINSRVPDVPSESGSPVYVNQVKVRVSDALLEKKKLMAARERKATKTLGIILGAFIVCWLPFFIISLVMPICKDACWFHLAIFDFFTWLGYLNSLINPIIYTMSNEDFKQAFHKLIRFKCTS

[3] = biological target: T2, Vascular endothelial growth factor receptor 2 (KDR tyrosine kinase) (VEGFR2) (Homo sapiens, UniProt P35968); experiment: SAFETYscan KINOMEscan binding assay; details: Inhibitor
T2 construct: host or cells: E. coli BL21-derived host (T7 phage) or HEK-293
T2 sequence (P35968 20-1356): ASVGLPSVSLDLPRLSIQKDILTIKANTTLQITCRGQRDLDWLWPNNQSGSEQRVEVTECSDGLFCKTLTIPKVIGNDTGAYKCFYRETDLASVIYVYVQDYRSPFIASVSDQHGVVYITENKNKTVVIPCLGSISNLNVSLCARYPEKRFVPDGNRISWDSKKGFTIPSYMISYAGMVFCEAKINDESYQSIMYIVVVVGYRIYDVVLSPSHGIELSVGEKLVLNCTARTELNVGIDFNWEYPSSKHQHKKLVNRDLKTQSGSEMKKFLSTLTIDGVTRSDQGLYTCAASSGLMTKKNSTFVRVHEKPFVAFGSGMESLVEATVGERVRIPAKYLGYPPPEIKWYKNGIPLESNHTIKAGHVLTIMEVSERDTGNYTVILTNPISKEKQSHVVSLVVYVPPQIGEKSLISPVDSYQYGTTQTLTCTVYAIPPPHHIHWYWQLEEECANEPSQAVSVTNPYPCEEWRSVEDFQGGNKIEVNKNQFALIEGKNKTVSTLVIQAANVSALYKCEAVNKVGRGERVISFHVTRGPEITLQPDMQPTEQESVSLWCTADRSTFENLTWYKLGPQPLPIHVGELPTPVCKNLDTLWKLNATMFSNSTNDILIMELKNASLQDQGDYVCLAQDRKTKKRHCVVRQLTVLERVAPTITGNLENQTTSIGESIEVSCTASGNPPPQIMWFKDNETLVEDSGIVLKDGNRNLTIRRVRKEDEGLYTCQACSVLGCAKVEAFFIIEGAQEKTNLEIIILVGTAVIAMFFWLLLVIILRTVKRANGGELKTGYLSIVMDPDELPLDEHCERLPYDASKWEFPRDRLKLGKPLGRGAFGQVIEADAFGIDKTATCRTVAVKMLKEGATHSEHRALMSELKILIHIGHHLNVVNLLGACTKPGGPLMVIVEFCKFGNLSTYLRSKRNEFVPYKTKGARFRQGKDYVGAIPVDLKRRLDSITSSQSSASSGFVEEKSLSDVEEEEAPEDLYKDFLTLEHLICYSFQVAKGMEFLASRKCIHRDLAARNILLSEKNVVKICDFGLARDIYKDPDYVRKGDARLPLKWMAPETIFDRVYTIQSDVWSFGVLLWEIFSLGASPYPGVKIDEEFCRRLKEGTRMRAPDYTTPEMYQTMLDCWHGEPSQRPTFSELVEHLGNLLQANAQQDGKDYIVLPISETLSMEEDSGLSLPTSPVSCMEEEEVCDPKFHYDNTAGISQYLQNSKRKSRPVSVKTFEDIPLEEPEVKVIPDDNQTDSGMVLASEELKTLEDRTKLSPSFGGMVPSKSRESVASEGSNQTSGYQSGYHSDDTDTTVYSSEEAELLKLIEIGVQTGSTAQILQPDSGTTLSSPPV

[4] = biological target: T3, Norepinephrine transporter (NET) (Homo sapiens, UniProt P23975); experiment: SAFETYscan Transporter assay; type: cell-based
T3 construct: host or cells: unnamed DiscoverX cell line
T3 sequence (P23975 whole entry): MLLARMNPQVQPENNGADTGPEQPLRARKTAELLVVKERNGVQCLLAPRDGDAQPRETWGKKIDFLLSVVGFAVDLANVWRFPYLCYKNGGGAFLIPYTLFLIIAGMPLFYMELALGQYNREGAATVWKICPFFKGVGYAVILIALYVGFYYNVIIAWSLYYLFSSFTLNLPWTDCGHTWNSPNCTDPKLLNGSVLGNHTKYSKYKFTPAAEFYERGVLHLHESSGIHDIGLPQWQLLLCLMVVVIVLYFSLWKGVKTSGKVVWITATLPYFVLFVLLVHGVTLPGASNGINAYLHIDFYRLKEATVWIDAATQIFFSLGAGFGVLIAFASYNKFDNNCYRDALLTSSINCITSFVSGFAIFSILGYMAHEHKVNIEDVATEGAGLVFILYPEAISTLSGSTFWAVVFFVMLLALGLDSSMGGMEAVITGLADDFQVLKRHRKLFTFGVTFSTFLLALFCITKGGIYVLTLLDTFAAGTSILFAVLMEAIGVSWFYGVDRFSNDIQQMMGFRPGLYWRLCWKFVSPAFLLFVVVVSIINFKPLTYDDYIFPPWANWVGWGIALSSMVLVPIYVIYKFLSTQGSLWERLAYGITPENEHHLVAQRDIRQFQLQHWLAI

[5] = system: adult rat spinal cord primary cultures; experiment: Spinal cord neurons neurite outgrowth assay; type: cell-based; details: 10 μM HU-MCA-13
Description: To study the effect of HU-MCA-13 on adult rat spinal cord primary cultures in vitro, we developed a purification procedure that yields enriched different types of spinal cord neuronal cultures. This neurotropic assay was performed using vehicle 1% DMSO in DMEM as control and 10 μM HU-MCA-13. The results in Figure 1 bottom row and Figure 3D clearly indicate that in control there was very poor spontaneous neurite outgrowth of a total length of about 180 μm and NGF induced neurite outgrowth to a total length of about 800 μm. Similarly, HU-MCA-13 induced a neurite outgrowth of 600 μm. Figure 2B indicates cytoskeletal-tubulin protein expression in the cultured neurons. These findings further extend the neurotropic effect of HU-MCA-13 to spinal cord neurons, in addition to DRGs and PC12 cells.
Spinal cords were isolated from adult rats (4–6 months old), and the meninges were removed from the spinal cord. The spinal cord was then cut into small pieces and collected in cold Hibernate A (Brainbits, Springfield, IL, USA), glutamine (0.5 mM), and B27 (Invitrogen, Carlsbad, CA). […] Neurite outgrowth was measured and presented as mean length of a neurite (microns). To measure neuronal survival, 450 cells were counted in 10 randomly chosen microscope fields of a known area in each of the three dishes per condition using a 20× objective and phase-contrast optics. […]

[6] = Blood hematology and biochemistry after intravenous injection; type: in vivo; details: 250 mg/kg IV; 24 h from injection

Arginine Vasopressin Receptor 1A (AVPR1A), sequence (P37288 whole entry): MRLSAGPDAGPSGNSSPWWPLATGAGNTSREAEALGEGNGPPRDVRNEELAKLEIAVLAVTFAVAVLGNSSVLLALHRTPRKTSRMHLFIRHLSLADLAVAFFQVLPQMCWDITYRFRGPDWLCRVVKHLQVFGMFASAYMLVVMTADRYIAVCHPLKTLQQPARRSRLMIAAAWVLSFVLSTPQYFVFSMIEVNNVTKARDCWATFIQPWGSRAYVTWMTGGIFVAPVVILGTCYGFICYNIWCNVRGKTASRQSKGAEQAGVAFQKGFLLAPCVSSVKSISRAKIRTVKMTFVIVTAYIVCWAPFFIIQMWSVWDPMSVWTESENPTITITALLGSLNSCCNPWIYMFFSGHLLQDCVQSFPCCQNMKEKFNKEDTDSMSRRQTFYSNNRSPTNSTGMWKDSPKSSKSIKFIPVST

For C=CCC1CCCC(CCC(=O)O)C1=C (centres unmarked) [HU-MCA-13, 3-(3-allyl-2-methylenecyclohexyl)propanoic acid], the EC50 ([1]; Agonist) was greater than 10 µM, the IC50 ([1]; Antagonist) was greater than 10 µM and the EC50 [2] was greater than 10 µM. The IC50 [2] was greater than 10 µM, the inhibition at 10 µM ([3]; 10 μM, read-out: MCA-13 Max. Responce) was 21.7% and the IC50 ([3]; read-out: RC50 (the source's name)) was greater than 10 µM. The IC50 [4] was greater than 10 µM, the inhibition at 10 µM ([4]; 10 μM, Blocker, Transporter, read-out: MCA-13 Max. Responce) was 3.53% and the “neurite outgrowth total length” value [5] was 600 μm. For the same molecule, the “bilirubin concentration versus DMSO” value [6] was “small significant increase”, the “blood count versus DMSO” value [6] was “No difference” and the “coagulation parameters versus DMSO” value [6] was “No difference”. The “electrolytes versus DMSO” value [6] was “No difference” and the “kidney and liver parameters versus DMSO” value [6] was “lack of differences”.
